Measurements: ChEMBL document CHEMBL5537115, “New broad-spectrum and potent antibacterial agents with dual-targeting mechanism: Promoting FtsZ polymerization and disrupting bacterial membranes” (Eur J Med Chem, 2024)
Activity calls are given as the source filed them. No cut-off for these calls is given here.

Tests used:
Enterococcus faecium [1] = test: Antibacterial activity against vancomycin-resistant Enterococcus faecium ATCC51559 assessed as bacterial growth inhibition incubated for 20 hrs by CLSI based broth microdilution method; format: functional
Streptococcus pyogenes [2] = test: Antibacterial activity against erythromycin-susceptible Streptococcus pyogenes 1 assessed as bacterial growth inhibition incubated for 20 hrs by CLSI based broth microdilution method; format: functional
Klebsiella pneumoniae = test: Antibacterial activity against Klebsiella pneumoniae ATCC BAA-1902 assessed as bacterial growth inhibition incubated for 20 hrs by CLSI based broth microdilution method; format: functional
Bacillus subtilis [3] = test: Selectivity ratio of MBC for penicillin-susceptible Bacillus subtilis ATCC9372 to MIC for penicillin-susceptible Bacillus subtilis ATCC9372; format: functional
Enterococcus faecalis [4] = test: Antibacterial activity against vancomycin-susceptible Enterococcus faecalis ATCC29212 assessed as bacterial growth inhibition incubated for 20 hrs by CLSI based broth microdilution method; format: functional
Staphylococcus aureus [5] = test: Selectivity ratio of MBC for methicillin-resistant Staphylococcus aureus ATCC43300 to MIC for methicillin-resistant Staphylococcus aureus ATCC43300; format: functional
Staphylococcus aureus [6] = test: Antibacterial activity against Staphylococcus aureus clinical isolate incubated for 18 to 24 hrs; format: functional; conditions: time 18-24 hrs
Acinetobacter baumannii [7] = test: Antibacterial activity against Acinetobacter baumannii ATCC19606 incubated for 18 to 24 hrs; format: functional; conditions: time 18-24 hrs
Staphylococcus aureus [8] = test: Antibacterial activity against erythromycin-susceptible Staphylococcus aureus ATCC25923 incubated for 18 to 24 hrs; format: functional; conditions: time 18-24 hrs
Bacillus subtilis [9] = test: Antibacterial activity against penicillin-susceptible Bacillus subtilis ATCC9372 incubated for 18 to 24 hrs; format: functional; conditions: time 18-24 hrs
Streptococcus pyogenes [10] = test: Antibacterial activity against erythromycin-resistant Streptococcus pyogenes 2 clinical isolate assessed as bacterial growth inhibition incubated for 20 hrs by CLSI based broth microdilution method; format: functional
Escherichia coli [11] = test: Antibacterial activity against wild-type Escherichia coli BW25113 assessed as bacterial growth inhibition incubated for 20 hrs by CLSI based broth microdilution method; format: functional
Acinetobacter baumannii [12] = test: Antibacterial activity against Acinetobacter baumannii ATCC19606 assessed as bacterial growth inhibition incubated for 20 hrs by CLSI based broth microdilution method; format: functional
Escherichia coli [13] = test: Antibacterial activity against penicillin-susceptible Escherichia coli ATCC25922 assessed as bacterial growth inhibition incubated for 20 hrs by CLSI based broth microdilution method; format: functional
Staphylococcus aureus [14] = test: Selectivity ratio of MBC for Staphylococcus aureus clinical isolate to MIC for Staphylococcus aureus clinical isolate; format: functional
Bacillus pumilus = test: Antibacterial activity against penicillin-susceptible Bacillus pumilus CMCC63202 assessed as bacterial growth inhibition incubated for 20 hrs by CLSI based broth microdilution method; format: functional
Enterococcus faecium [15] = test: Antibacterial activity against vancomycin-susceptible Enterococcus faecium ATCC19434 assessed as bacterial growth inhibition incubated for 20 hrs by CLSI based broth microdilution method; format: functional
Staphylococcus aureus [16] = test: Antibacterial activity against Staphylococcus aureus clinical isolate assessed as bacterial growth inhibition incubated for 20 hrs by CLSI based broth microdilution method; format: functional
Staphylococcus aureus [17] = test: Antibacterial activity against methicillin-resistant Staphylococcus aureus ATCC43300 assessed as bacterial growth inhibition incubated for 20 hrs by CLSI based broth microdilution method; format: functional
Staphylococcus aureus [18] = test: Antibacterial activity against erythromycin-susceptible Staphylococcus aureus ATCC25923 assessed as bacterial growth inhibition incubated for 20 hrs by CLSI based broth microdilution method; format: functional
Staphylococcus aureus [19] = test: Antibacterial activity against methicillin-resistant Staphylococcus aureus ATCC43300 incubated for 18 to 20 hrs; format: functional; conditions: time 18-20 hrs
[20] = tested on: Staphylococcus epidermidis; test: Antibacterial activity against penicillin-resistant Staphylococcus epidermidis clinical isolate assessed as bacterial growth inhibition incubated for 20 hrs by CLSI based broth microdilution method; format: functional
Enterococcus faecalis [21] = test: Antibacterial activity against vancomycin-resistant Enterococcus faecalis ATCC51299 assessed as bacterial growth inhibition incubated for 20 hrs by CLSI based broth microdilution method; format: functional
Bacillus subtilis [22] = test: Antibacterial activity against penicillin-susceptible Bacillus subtilis ATCC9372 assessed as bacterial growth inhibition incubated for 20 hrs by CLSI based broth microdilution method; format: functional
Staphylococcus aureus [23] = test: Antibacterial activity against penicillin-resistant Staphylococcus aureus ATCC31007 assessed as bacterial growth inhibition incubated for 20 hrs by CLSI based broth microdilution method; format: functional
Acinetobacter baumannii [24] = test: Selectivity ratio of MBC for Acinetobacter baumannii ATCC19606 to MIC for Acinetobacter baumannii ATCC19606; format: functional
Staphylococcus aureus [25] = test: Selectivity ratio of MBC for erythromycin-susceptible Staphylococcus aureus ATCC25923 to MIC for erythromycin-susceptible Staphylococcus aureus ATCC25923; format: functional
Staphylococcus aureus [26] = test: Effect on proton gradient of cytoplasmic membrane in Staphylococcus aureus ATCC25923 at 1 ug/ml measured after 20 mins by diSC35 dye based analysis; format: functional, organism-based; conditions: Cytoplasm membrane, dose 1.0 µg/ml
Escherichia coli [27] = test: Disruption of outer membrane in Escherichia coli ATCC25922 at 16 ug/ml measured after 10 mins by NPN dye based analysis; format: functional, organism-based; conditions: dose 16.0 µg/ml
Staphylococcus aureus [28] = test: Disruption of inner membrane in Staphylococcus aureus ATCC25923 at 0.5 ug/ml measured after 12 mins by PI staining based analysis; format: functional, organism-based; conditions: dose 0.5 µg/ml

SMILES: Cc1ccccc1-c1c[n+](C)c(-c2ccc(C(C)(C)C)cc2)cc1/C=C/c1ccc(N(C)C)cc1.[I-]
- MIC (Enterococcus faecium [1]): 0.5 µg/mL
- MIC (Streptococcus pyogenes [2]): 2 µg/mL
- MIC (Klebsiella pneumoniae): 16 µg/mL
- Ratio (Bacillus subtilis [3]): 4
- MIC (Enterococcus faecalis [4]): 2 µg/mL
- Ratio (Staphylococcus aureus [5]): 1
- MBC (Staphylococcus aureus [6]): 1 µg/mL
- MBC (Acinetobacter baumannii [7]): 2 µg/mL
- MBC (Staphylococcus aureus [8]): 0.25 µg/mL
- MBC (Bacillus subtilis [9]): 2 µg/mL
- MIC (Streptococcus pyogenes [10]): 2 µg/mL
- MIC (Escherichia coli [11]): 2 µg/mL
- MIC (Acinetobacter baumannii [12]): 1 µg/mL
- MIC (Escherichia coli [13]): 4 µg/mL
- Ratio (Staphylococcus aureus [14]): 4
- MIC (Bacillus pumilus): 0.5 µg/mL
- MIC (Enterococcus faecium [15]): 1 µg/mL
- MIC (Staphylococcus aureus [16]): 0.25 µg/mL
- MIC (Staphylococcus aureus [17]): 0.5 µg/mL
- MIC (Staphylococcus aureus [18]): 0.125 µg/mL
- MBC (Staphylococcus aureus [19]): 0.5 µg/mL
- MIC [20]: 1 µg/mL
- MIC (Enterococcus faecalis [21]): 2 µg/mL
- MIC (Bacillus subtilis [22]): 0.5 µg/mL
- MIC (Staphylococcus aureus [23]): 1 µg/mL
- Ratio (Acinetobacter baumannii [24]): 2
- Ratio (Staphylococcus aureus [25]): 2

SMILES: CN(C)c1ccc(/C=C/c2cc(-c3ccc(C(C)(C)C)cc3)[n+](C)cc2-c2ccccc2)cc1.[I-]
- MIC (Enterococcus faecium [1]): 2 µg/mL
- MIC (Streptococcus pyogenes [2]): 2 µg/mL
- MIC (Klebsiella pneumoniae): 8 µg/mL
- Ratio (Bacillus subtilis [3]): 16
- MIC (Enterococcus faecalis [4]): 2 µg/mL
- MBC (Staphylococcus aureus [6]): 1 µg/mL
- MBC (Acinetobacter baumannii [7]): 4 µg/mL
- MBC (Staphylococcus aureus [8]): 1 µg/mL
- MBC (Bacillus subtilis [9]): 2 µg/mL
- MIC (Streptococcus pyogenes [10]): 2 µg/mL
- MIC (Escherichia coli [11]): 8 µg/mL
- MIC (Acinetobacter baumannii [12]): 1 µg/mL
- MIC (Escherichia coli [13]): 4 µg/mL
- Ratio (Staphylococcus aureus [14]): 4
- MIC (Bacillus pumilus): 0.25 µg/mL
- MIC (Enterococcus faecium [15]): 2 µg/mL
- MIC (Staphylococcus aureus [16]): 0.125 µg/mL
- MIC (Staphylococcus aureus [17]): 0.25 µg/mL
- MIC (Staphylococcus aureus [18]): 0.125 µg/mL
- MBC (Staphylococcus aureus [19]): 1 µg/mL
- MIC [20]: 1 µg/mL
- MIC (Enterococcus faecalis [21]): 2 µg/mL
- MIC (Bacillus subtilis [22]): 0.125 µg/mL
- MIC (Staphylococcus aureus [23]): 0.5 µg/mL
- Ratio (Acinetobacter baumannii [24]): 4
- Ratio (Staphylococcus aureus [25]): 8

SMILES: C[n+]1cc(-c2ccccc2)c(/C=C/c2ccc(C(C)(C)C)cc2)cc1-c1ccccc1.[I-]
- MIC (Enterococcus faecium [1]): 2 µg/mL
- MIC (Streptococcus pyogenes [2]): 2 µg/mL
- MIC (Klebsiella pneumoniae): 32 µg/mL
- MIC (Enterococcus faecalis [4]): 4 µg/mL
- Activity (Staphylococcus aureus [26]): inactive
- MIC (Streptococcus pyogenes [10]): 2 µg/mL
- MIC (Escherichia coli [11]): 8 µg/mL
- Activity (Escherichia coli [27]): Active
- MIC (Acinetobacter baumannii [12]): 4 µg/mL
- MIC (Escherichia coli [13]): 8 µg/mL
- MIC (Bacillus pumilus): 2 µg/mL
- MIC (Enterococcus faecium [15]): 4 µg/mL
- MIC (Staphylococcus aureus [16]): 0.5 µg/mL
- MIC (Staphylococcus aureus [17]): 0.5 µg/mL
- MIC (Staphylococcus aureus [18]): 0.25 µg/mL
- MIC [20]: 2 µg/mL
- Activity (Staphylococcus aureus [28]): Active
- MIC (Enterococcus faecalis [21]): 4 µg/mL
- MIC (Bacillus subtilis [22]): 0.5 µg/mL
- MIC (Staphylococcus aureus [23]): 4 µg/mL

SMILES: Cc1cc(-c2ccccc2)[n+](C)cc1-c1ccccc1
- Activity (Staphylococcus aureus [26]): inactive
